PubChem BioAssay (NCI)
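Values below derive from 48-hour exposures of cells grown in 96-well plates, with endpoints linearly interpolated between the two concentrations bracketing the appropriate inhibition level. At the GI50, growth is halved. The concentration for full growth arrest is given as TGI.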

Key:
Experiment in all cases: NCI anticancer screen, dose series, 48 h
786-0 renal = tested on: 786-0 renal
A498 renal = tested on: A498 renal
A549 NSCLC = tested on: A549 NSCLC
ACHN renal = tested on: ACHN renal
BT-549 breast = tested on: BT-549 breast
CAKI-1 renal = tested on: CAKI-1 renal
CCRF-CEM leukemia = tested on: CCRF-CEM leukemia
COLO 205 colon = tested on: COLO 205 colon
DU-145 prostate = tested on: DU-145 prostate
EKVX NSCLC = tested on: EKVX NSCLC
HCC-2998 colon = tested on: HCC-2998 colon
HCT-116 colon = tested on: HCT-116 colon
HCT-15 colon = tested on: HCT-15 colon
HL-60(TB) leukemia = tested on: HL-60(TB) leukemia
HOP-62 NSCLC = tested on: HOP-62 NSCLC
HOP-92 NSCLC = tested on: HOP-92 NSCLC
HS 578T breast = tested on: HS 578T breast
HT29 colon = tested on: HT29 colon
IGROV1 ovarian = tested on: IGROV1 ovarian
K-562 leukemia = tested on: K-562 leukemia
KM12 colon = tested on: KM12 colon
LOX IMVI melanoma = tested on: LOX IMVI melanoma
M14 melanoma = tested on: M14 melanoma
MALME-3M melanoma = tested on: MALME-3M melanoma
MCF7 breast = tested on: MCF7 breast
MDA-MB-231 breast = tested on: MDA-MB-231 breast
MDA-MB-435 = tested on: MDA-MB-435
MOLT-4 leukemia = tested on: MOLT-4 leukemia
NCI-H226 lung = tested on: NCI-H226 lung
NCI-H23 lung = tested on: NCI-H23 lung
NCI-H460 lung = tested on: NCI-H460 lung
NCI-H522 lung = tested on: NCI-H522 lung
NCI/ADR-RES ovarian = tested on: NCI/ADR-RES ovarian
OVCAR-3 ovarian = tested on: OVCAR-3 ovarian
OVCAR-4 ovarian = tested on: OVCAR-4 ovarian
OVCAR-5 ovarian = tested on: OVCAR-5 ovarian
OVCAR-8 ovarian = tested on: OVCAR-8 ovarian
PC-3 prostate = tested on: PC-3 prostate
RPMI-8226 leukemia = tested on: RPMI-8226 leukemia
RXF 393 renal = tested on: RXF 393 renal
SF-268 CNS = tested on: SF-268 CNS
SF-295 CNS = tested on: SF-295 CNS
SF-539 CNS = tested on: SF-539 CNS
SK-MEL-2 melanoma = tested on: SK-MEL-2 melanoma
SK-MEL-28 melanoma = tested on: SK-MEL-28 melanoma
SK-MEL-5 melanoma = tested on: SK-MEL-5 melanoma
SK-OV-3 ovarian = tested on: SK-OV-3 ovarian
SN12C renal = tested on: SN12C renal
SNB-19 CNS = tested on: SNB-19 CNS
SW-620 colon = tested on: SW-620 colon
T-47D breast = tested on: T-47D breast
TK-10 renal = tested on: TK-10 renal
U251 CNS = tested on: U251 CNS
UACC-257 melanoma = tested on: UACC-257 melanoma
UACC-62 melanoma = tested on: UACC-62 melanoma
UO-31 renal = tested on: UO-31 renal

Clc1cc(Cl)cc(Nc2ccc3c(OCCCN4CCOCC4)cccc3n2)c1
GI50 (786-0 renal): 1.69 µM
TGI (786-0 renal): 3.22 µM
GI50 (A498 renal): 2.39 µM
TGI (A498 renal): 12.1 µM
GI50 (A549 NSCLC): 2.6 µM
TGI (A549 NSCLC): 6.87 µM
GI50 (ACHN renal): 3.02 µM
TGI (ACHN renal): 10.3 µM
GI50 (BT-549 breast): 6.93 µM
TGI (BT-549 breast): 20 µM
GI50 (CAKI-1 renal): 7.59 µM
TGI (CAKI-1 renal): 22.9 µM
GI50 (CCRF-CEM leukemia): 2.36 µM
TGI (CCRF-CEM leukemia): 6.36 µM
GI50 (COLO 205 colon): 1.77 µM
TGI (COLO 205 colon): 3.56 µM
GI50 (DU-145 prostate): 3.08 µM
TGI (DU-145 prostate): 9.67 µM
GI50 (EKVX NSCLC): 2.95 µM
TGI (EKVX NSCLC): 9.15 µM
GI50 (HCC-2998 colon): 1.82 µM
TGI (HCC-2998 colon): 3.51 µM
GI50 (HCT-116 colon): 1.82 µM
TGI (HCT-116 colon): 3.56 µM
GI50 (HCT-15 colon): 1.75 µM
TGI (HCT-15 colon): 3.52 µM
GI50 (HL-60(TB) leukemia): 2.11 µM
TGI (HL-60(TB) leukemia): 6.34 µM
GI50 (HOP-62 NSCLC): 2.29 µM
TGI (HOP-62 NSCLC): 7.03 µM
GI50 (HOP-92 NSCLC): 2.03 µM
TGI (HOP-92 NSCLC): 6.94 µM
GI50 (HS 578T breast): 2.51 µM
TGI (HS 578T breast): 8.14 µM
GI50 (HT29 colon): 1.76 µM
TGI (HT29 colon): 3.39 µM
GI50 (IGROV1 ovarian): 3.9 µM
TGI (IGROV1 ovarian): 17.6 µM
GI50 (K-562 leukemia): 2.21 µM
TGI (K-562 leukemia): 5.71 µM
GI50 (KM12 colon): 2 µM
TGI (KM12 colon): 4.13 µM
GI50 (LOX IMVI melanoma): 1.72 µM
TGI (LOX IMVI melanoma): 3.24 µM
GI50 (M14 melanoma): 1.86 µM
TGI (M14 melanoma): 4 µM
GI50 (MALME-3M melanoma): 2.5 µM
TGI (MALME-3M melanoma): 6.33 µM
GI50 (MCF7 breast): 1.74 µM
TGI (MCF7 breast): 3.48 µM
GI50 (MDA-MB-231 breast): 1.8 µM
TGI (MDA-MB-231 breast): 3.94 µM
GI50 (MDA-MB-435): 1.8 µM
TGI (MDA-MB-435): 3.71 µM
GI50 (MOLT-4 leukemia): 2.25 µM
TGI (MOLT-4 leukemia): 5.61 µM
GI50 (NCI-H226 lung): 3.17 µM
TGI (NCI-H226 lung): 10.7 µM
GI50 (NCI-H23 lung): 2.94 µM
TGI (NCI-H23 lung): 10.2 µM
GI50 (NCI-H460 lung): 2.42 µM
TGI (NCI-H460 lung): 5.86 µM
GI50 (NCI-H522 lung): 1.82 µM
TGI (NCI-H522 lung): 3.57 µM
GI50 (NCI/ADR-RES ovarian): 2.88 µM
TGI (NCI/ADR-RES ovarian): 9.29 µM
GI50 (OVCAR-3 ovarian): 2.92 µM
TGI (OVCAR-3 ovarian): 9.63 µM
GI50 (OVCAR-4 ovarian): 10.3 µM
TGI (OVCAR-4 ovarian): 22.2 µM
GI50 (OVCAR-5 ovarian): 1.83 µM
TGI (OVCAR-5 ovarian): 4.37 µM
GI50 (OVCAR-8 ovarian): 3.54 µM
TGI (OVCAR-8 ovarian): 13.3 µM
GI50 (PC-3 prostate): 1.94 µM
TGI (PC-3 prostate): 4.69 µM
GI50 (RPMI-8226 leukemia): 2.8 µM
TGI (RPMI-8226 leukemia): 8.33 µM
GI50 (RXF 393 renal): 2.26 µM
TGI (RXF 393 renal): 5.14 µM
GI50 (SF-268 CNS): 3 µM
TGI (SF-268 CNS): 9.63 µM
GI50 (SF-295 CNS): 1.92 µM
TGI (SF-295 CNS): 4.06 µM
GI50 (SF-539 CNS): 1.94 µM
TGI (SF-539 CNS): 3.84 µM
GI50 (SK-MEL-2 melanoma): 3.45 µM
TGI (SK-MEL-2 melanoma): 9.51 µM
GI50 (SK-MEL-28 melanoma): 1.65 µM
TGI (SK-MEL-28 melanoma): 3.3 µM
GI50 (SK-MEL-5 melanoma): 10.1 µM
TGI (SK-MEL-5 melanoma): 23.2 µM
GI50 (SK-OV-3 ovarian): 2.78 µM
TGI (SK-OV-3 ovarian): 8.55 µM
GI50 (SN12C renal): 10.8 µM
TGI (SN12C renal): 26.8 µM
GI50 (SNB-19 CNS): 2.08 µM
TGI (SNB-19 CNS): 4.39 µM
GI50 (SW-620 colon): 1.86 µM
TGI (SW-620 colon): 3.69 µM
GI50 (T-47D breast): 4.91 µM
TGI (T-47D breast): 18.2 µM
GI50 (TK-10 renal): 2.38 µM
TGI (TK-10 renal): 5 µM
GI50 (U251 CNS): 1.98 µM
TGI (U251 CNS): 3.95 µM
GI50 (UACC-257 melanoma): 2.05 µM
TGI (UACC-257 melanoma): 4.31 µM
GI50 (UACC-62 melanoma): 2.01 µM
TGI (UACC-62 melanoma): 4.57 µM
GI50 (UO-31 renal): 1.51 µM
TGI (UO-31 renal): 2.94 µM
